Measured values from ChEMBL document CHEMBL3272121, “Hypolipidemic analogues of ethyl 4-benzyloxybenzoate” (J Med Chem, 1977).

How the values were obtained:
[1] = tested on: Rattus norvegicus; assay: Hypolipidemic activity in CFY Sprague-Dawley rat assessed as liver lipid per gm of liver at 0.25% dietary level administered for 7 days relative to control; type: functional
[2] = tested on: Rattus norvegicus; assay: Toxicity in CFY Sprague-Dawley rat assessed as body weight gain at 0.25% dietary level administered for 7 days relative to control; type: organism-based; details: in vivo, po, 168 h
[3] = tested on: Rattus norvegicus; assay: Toxicity in CFY Sprague-Dawley rat assessed as relative liver weight at 0.2% dietary level administered for 7 days relative to control; type: organism-based; details: in vivo, po, 168 h
[4] = tested on: Rattus norvegicus; assay: Hypolipidemic activity in CFY Sprague-Dawley rat assessed as liver lipid per gm of liver at 1% dietary level administered for 7 days relative to control; type: functional
[5] = tested on: Rattus norvegicus; assay: Hypolipidemic activity in CFY Sprague-Dawley rat assessed as liver lipid per gm of liver at 0.2% dietary level administered for 7 days relative to control; type: functional
[6] = tested on: Rattus norvegicus; assay: Hypolipidemic activity in CFY Sprague-Dawley rat assessed as serum cholesterol level at 0.25% dietary level administered for 7 days relative to control; type: functional
[7] = tested on: Liver; assay: Inhibition of cholesterol biosynthesis from [1-14C]acetate in rat liver slices at […] relative to control; type: functional
[8] = tested on: Rattus norvegicus; assay: Hypolipidemic activity in CFY Sprague-Dawley rat assessed as serum triglyceride level at 0.2% dietary level administered for 7 days relative to control; type: functional
[9] = tested on: Rattus norvegicus; assay: Toxicity in CFY Sprague-Dawley rat assessed as relative liver weight at 0.25% dietary level administered for 7 days relative to control; type: organism-based; details: in vivo, po, 168 h
[10] = tested on: Rattus norvegicus; assay: Toxicity in CFY Sprague-Dawley rat assessed as body weight gain at 1% dietary level administered for 7 days relative to control; type: organism-based; details: in vivo, po, 168 h
[11] = tested on: Rattus norvegicus; assay: Hypolipidemic activity in CFY Sprague-Dawley rat assessed as serum triglyceride level at 0.25% dietary level administered for 7 days relative to control; type: functional
[12] = tested on: Rattus norvegicus; assay: Hypolipidemic activity in CFY Sprague-Dawley rat assessed as serum cholesterol level at 0.2% dietary level administered for 7 days relative to control; type: functional
[13] = tested on: Rattus norvegicus; assay: Hypolipidemic activity in CFY Sprague-Dawley rat assessed as serum triglyceride level at 1% dietary level administered for 7 days relative to control; type: functional
[14] = tested on: Rattus norvegicus; assay: Toxicity in CFY Sprague-Dawley rat assessed as relative liver weight at 1% dietary level administered for 7 days relative to control; type: organism-based; details: in vivo, po, 168 h
[15] = tested on: Rattus norvegicus; assay: Hypolipidemic activity in CFY Sprague-Dawley rat assessed as serum cholesterol level at 1% dietary level administered for 7 days relative to control; type: functional
[16] = tested on: Liver; assay: Inhibition of fatty acid biosynthesis from [1-14C]acetate in rat liver slices at 5 X 10^-4 M relative to control; type: functional
[17] = tested on: Rattus norvegicus; assay: Toxicity in CFY Sprague-Dawley rat assessed as body weight gain at 0.2% dietary level administered for 7 days relative to control; type: organism-based; details: in vivo, po, 168 h

| SMILES | Activity [1] [%] | Activity [2] [%] | Activity [3] [%] | Activity [4] [%] | Activity [5] [%] | Activity [6] [%] | inhibition at 500 µM [7] [%] | Activity [8] [%] | Activity [9] [%] | Activity [10] [%] | Activity [11] [%] | Activity [12] [%] | Activity [13] [%] | Activity [14] [%] | Activity [15] [%] | inhibition at 500 µM [16] [%] | Activity [17] [%] |
| --- | --- | --- | --- | --- | --- | --- | --- | --- | --- | --- | --- | --- | --- | --- | --- | --- | --- |
| O=C(O)c1ccc(OCc2ccccc2)cc1 | -4 | -5 | 0 | 1 | 8 | -23 | 92 | -50 | 10 | -62 | -65 | -14 | -34 | 50 | -24 | 65 | -13 |
| CCOC(=O)c1ccc(OCc2ccc(C)cc2)cc1 | 1 | -4 | 2 | 3 | -7 | -18 | 47 | -42 | 4 | -19 | -54 | -17 | -46 | 19 | -13 | 47 | 14 |
| CCCc1ccc(OCc2ccccc2)c(OC)c1 | 4 | 0 | – | – | – | 15 | 34 | – | 17 | – | 12 | – | – | – | – | 3 | – |
| CCCCCCCCCc1ccc(OCc2ccccc2)cc1 | – | -41 | – | – | – | -12 | 67 | – | -5 | – | -67 | – | – | – | – | 60 | – |
| Cc1ccc(OCc2ccccc2)cc1 | – | -7 | – | – | – | -19 | 67 | – | 29 | – | -19 | – | – | – | – | 43 | – |
| CC(C)OC(=O)c1ccc(OCc2ccccc2)cc1 | -5 | -4 | – | – | – | -10 | – | – | 13 | – | -40 | – | – | – | – | – | – |
| CCOCCOC(=O)c1ccc(OCc2ccccc2)cc1 | 0 | 10 | – | – | – | -17 | – | – | 10 | – | -51 | – | – | – | – | – | – |
| COC(=O)c1ccc(OCc2ccccc2)cc1 | 4 | -14 | – | – | – | -19 | – | – | 15 | – | -51 | – | – | – | – | – | – |
| O=C([O-])c1ccc(OCc2ccccc2)cc1.[Na+] | 12 | -13 | – | – | – | -15 | – | – | 2 | – | -38 | – | – | – | – | – | – |
| CCOC(=O)c1ccc(OCc2cccc(C)c2)cc1 | – | -10 | – | – | – | -18 | 97 | – | -2 | – | -54 | – | – | – | – | 82 | – |
| CCOC(=O)c1ccc(OCc2cc(C)ccc2C)cc1 | – | -21 | – | – | – | -12 | 93 | – | -9 | – | -49 | – | – | – | – | 55 | – |
| CCOC(=O)c1ccc(OCc2ccc(C)c(C)c2)cc1 | 13 | -7 | – | – | – | -19 | 97 | – | 10 | – | -47 | – | – | – | – | 94 | – |
| CCOC(=O)c1ccc(OCc2ccc(Br)cc2)cc1 | 0 | 1 | 8 | 4 | -2 | -29 | 98 | -62 | 10 | -8 | -52 | -23 | -39 | 20 | -24 | 84 | 17 |
| CCOC(=O)c1ccc(OCc2ccc(F)cc2)cc1 | 1 | 9 | – | – | – | -31 | 86 | – | 8 | – | -48 | – | – | – | – | 12 | – |
| O=C(O)c1ccc(OCc2ccc(F)cc2)cc1 | 8 | -3 | – | – | – | -28 | – | – | 2 | – | -49 | – | – | – | – | – | – |
| CCOC(=O)c1ccc(OCc2cccc(F)c2)cc1 | 1 | -1 | – | – | – | -19 | – | – | -4 | – | -60 | – | – | – | – | – | – |
